Results on seven molecules are retold here after paper PMC7866175, “Genomics-Driven Activation of Silent Biosynthetic Gene Clusters in Burkholderia gladioli by Screening Recombineering System” (Molecules, 2021).

Where two headings read alike, the source gives them in different places. *1 amine or outer side, *2 acyl side, *3 side chain or, on linkers, in order; H or OH if unused. Where a SMILES comes first, the peptide text is derived from it. [ ]: non-standard residue; d: D form. The star is where a group is joined. ξ: configuration not given here. Decanoyl(3ξ-OH) = CCCCCCCC(O)CC(=O)*; X1 = CC=C(N[*:1])C(=O)[*:2]

Holding throughout (type): cell-based
In data set [1] the test system is Pseudomonas aeruginosa ATCC 27853. Put plainly: Antibacterial activity assay. As to conditions: ATCC27853; Gram-negative bacterium Pseudomonas aeruginosa ATCC 27853.
Another data set concerns HCT116. Kind of data set: Cytotoxic activity assay. Particulars: Homo sapiens, HCT-116, read-out: cytotoxic activity IC50, HCT116.
Data set [2] concerns Escherichia coli ATCC 35218. Kind of data set: Antibacterial activity assay. Particulars: ATCC35218.
The subject of another data set is Hela. Put plainly: Cytotoxic activity assay. As to conditions: human cervix epithelioid carcinoma Hela.
In data set [3] the test system is Bacillus subtilis ATCC 6633. Kind of data set: Antibacterial activity assay. As to conditions: ATCC6633; Gram-positive bacterium Bacillus subtilis ATCC 6633.
Data set [4] deals with Staphylococcus aureus ATCC 29213. Put plainly: Antibacterial activity assay. As to conditions: ATCC29213; Gram-positive bacterium Staphylococcus aureus ATCC 29213.
Another data set concerns HepG-2. Put plainly: Cytotoxic activity assay. Particulars: HepG2; human hepatoma cell HepG-2.
A short description of another data set: Cytotoxic activity assay. Particulars: human, normal cell line 293T.
Another data set relates to A549. Put plainly: Cytotoxic activity assay. Particulars: human lung adenocarcinoma cell A549.
Another data set relates to MCF-7. Kind of data set: Cytotoxic activity assay. As to conditions: human breast adenocarcinoma cells MCF7.
The test system of another data set is K562. Kind of data set: Cytotoxic activity assay. As to conditions: human hematological disease cells K562.
Setting [5] is: Gram-negative bacterium Escherichia coli ATCC 35218, read-out: MIC.

What is called MIC is the lowest concentration that inhibits growth of the organism. For orientation: IC50 means the concentration that inhibits the measured activity by half. Turning to `CC=C(NC(=O)CC(O)CCCCCCC)C(=O)N1CCCC1C(=O)NC(CCC(N)=O)C(=O)NC(C)C(=O)NC(C(=O)NC(Cc1ccccc1)C(=O)N1CCCC1C(=O)O)C(C)C` (stereo not shown) [Compound 1, Burriogladiodin A] ({Decanoyl(3ξ-OH)}-[X1]PQAVFP-OH; configuration not given here), the MIC in data set [1], in data set [2] (Escherichia coli), in data set [3] and in data set [4] was more than 100 µM in each case. In addition, the 50% inhibitory concentration (IC50) with HCT116 is more than 20 µM; in the data set with Hela, more than 20 µM; in the data set with HepG-2 it was more than 20 µM; in “Cytotoxic activity assay” it was 29.4 ± 0.85 µM; with A549 it was more than 20 µM; in the data set with MCF-7 it was more than 20 µM. The molecule further displayed a half-inhibitory concentration (IC50) with K562 of more than 20 µM.
For the molecule `CC=C(NC(=O)CC(O)CCCCCCC)C(=O)N1CCCC1C(=O)NC(CCC(N)=O)C(=O)NC(C)C(=O)NC(C(=O)NC(Cc1ccccc1)C(=O)N1CCCC1C(=O)NC(C(=O)O)C(C)O)C(C)C` (stereo not shown) [Compound 2, Burriogladiodin B] ({Decanoyl(3ξ-OH)}-[X1]PQAVFPT-OH; configuration not given here), the MIC in [1], in [2] (Escherichia coli), in data set [3] and in data set [4] was more than 100 µM in each case. For the same molecule, the IC50 in the data set on HCT116 was more than 20 µM; with Hela, more than 20 µM; with HepG-2, more than 20 µM; in “Cytotoxic activity assay”, more than 40 µM; with A549, more than 20 µM; with MCF-7, more than 20 µM. In addition, in the data set with K562, the half-maximal inhibitory concentration (IC50) was more than 20 µM.
Regarding `CC=C(NC(=O)CC(O)CCCCCCC)C(=O)N1CCCC1C(=O)NC(CCC(N)=O)C(=O)NC(C)C(=O)NC(C(=O)NC(Cc1ccccc1)C(=O)O)C(C)C` (stereo not shown) [Compound 5, Burriogladiodin E] ({Decanoyl(3ξ-OH)}-[X1]PQAVF-OH; configuration not given here), the MIC in data set [1], in data set [2] (Escherichia coli), in [3] and in [4] was more than 100 µM in each case. Moreover, the concentration for half-maximal inhibition (IC50) in the data set on HCT116 was more than 20 µM; in the data set on Hela, more than 20 µM; in the data set with HepG-2, more than 20 µM; in “Cytotoxic activity assay”, 24.9 ± 0.96 µM; with A549, more than 20 µM; with MCF-7, more than 20 µM. In addition, the IC50 with K562 was more than 20 µM.
`CC=C(NC(=O)CC(O)CCCCCCC)C(=O)N1CCCC1C(=O)NC(CCC(N)=O)C(=O)NC(C)C(=O)NC(C)C(=O)NC(Cc1ccccc1)C(=O)O` (stereo not shown) [Compound 8, Burriogladiodin H] ({Decanoyl(3ξ-OH)}-[X1]PQAAF-OH; configuration not given here): the MIC in [1], in data set [2] (Escherichia coli), in data set [3] and in [4] was more than 100 µM each time. For the same molecule, the half-inhibitory concentration (IC50) was more than 20 µM in the data set with HCT116; more than 20 µM in the data set with Hela; more than 20 µM in the data set on HepG-2; more than 40 µM in the data set “Cytotoxic activity assay”; more than 20 µM in the data set on A549; more than 20 µM in the data set on MCF-7. The molecule further showed a 50% inhibitory concentration (IC50) with K562 of more than 20 µM.
Consider `CC=C(NC(=O)CCCCCCC)C(=O)NC(=CC)C(=O)NC(Cc1ccc(O)cc1)C(=O)NC(CC(C)C)C(=O)Nc1ccc(C(=O)NC(C(=O)O)C(C)O)cc1` (stereo not shown) [Compound 9, Haereogladiodin A], for which the MIC in [1], in data set [2] (setting [5]), in [3] and in data set [4] was more than 100 µM throughout. Also, the half-inhibitory concentration (IC50) is more than 20 µM in the data set on HCT116; more than 20 µM in the data set with Hela; more than 20 µM in the data set on HepG-2; 36.1 ± 0.81 µM in the data set “Cytotoxic activity assay”; more than 20 µM with A549; more than 20 µM with MCF-7. In addition, the IC50 in the data set on K562 is more than 20 µM.
As to `CC=C(NC(=O)CCCCCCC)C(=O)NC(=CC)C(=O)NC(Cc1ccc(O)cc1)C(=O)O` (stereo not shown) [Compound 10, Haereogladiodin B], the MIC in data set [1], in data set [2] (setting [5]), in [3] and in [4] was more than 100 µM throughout. Further, the IC50 is more than 20 µM in the data set on HCT116; more than 20 µM in the data set on Hela; more than 20 µM in the data set on HepG-2; 33.9 ± 0.75 µM in the data set “Cytotoxic activity assay”; more than 20 µM in the data set with A549; more than 20 µM in the data set on MCF-7. The molecule also displayed a 50% inhibitory concentration (IC50) in the data set with K562 of more than 20 µM.
As for `COc1cccc2c1C(=O)c1c(O)c3c(c(O)c1C2=O)C[C@@](O)(C(=O)CO)C[C@@H]3O[C@H]1C[C@H](N)[C@H](O)[C@H](C)O1` [adriamycin, reference compound], the IC50 with HCT116 amounted to 0.73 ± 0.05 µM; with Hela, 0.61 ± 0.07 µM; with HepG-2 it was 0.68 ± 0.001 µM; in the data set “Cytotoxic activity assay” (293T cells (normal cell line)) it was 1.47 ± 0.15 µM; in the data set on A549 it was 0.61 ± 0.03 µM; in the data set with MCF-7, 0.86 ± 0.07 µM. Moreover, the 50% inhibitory concentration (IC50) in the data set with K562 was 0.57 ± 0.02 µM.
